Source: patent US20260069699A1, “Hybrid Curcumin Conjugates And Methods Of Use Thereof” (AUGUSTA UNIVERSITY RESEARCH INSTITUTE, INC., priority 2020, published 2026)

How the values were obtained:
MDA-MB231 (MB231) cells = experiment: MTT cell proliferation assay, MB231 cells; type: cell-based, human
Experimental: (§1) We tested the antitumor potential of All the synthesized six DCA-curcumin hybrid conjugates (CMC 1-CMC 6) with two different human breast cancer cell lines [T47D, an ER-positive BC cell line and MDA-MB231 (MB231), a triple-receptor negative BC (TNBC) cell line] using the colorimetric MTT (3-(4,5-dimethylthiazol-2yl)-2,5-diphenyltetrazolium bromide) cell proliferation assay kit.
(§2) […] and MB231 cells (5×10^3) were seed in 96-well plates and left them in the cell culture incubator at 37° C. with 5% CO2 in DMEM and RPMI medium (100 μl), respectively. After 24 h, the medium was replaced with the CMC compounds at different concentrations (0, 1, 5, and 10 μM) for 72 h. After 72 h, 10 μl Reliablue reagent was added to each well and incubated for 2 h for the formation of purple formazan and then added 100 μl of detergent to dissociate the formazan precipitate and measured at 570 nm. Values are shown as mean±SEM of three experiments with 6 wells in each, a total of 18 repeats.

FVB/N mice = experiment: Adverse effects and toxicity in normal mice; type: in vivo, mouse; settings: oral gavage 50 and 100 mg/kg body, 7 days
Experimental: Adverse effects and toxicity to the normal cells are the most challenging part of the anticancer drug development process. […] The body weight and any side effects of contraindication monitored during the period.
Control mice received PBS. After one weak of drug administration, mouse weight was measured every day for 7 days. We used 3 mice in each group. (A) Body weight changes in control mice (B and C) Body weight changes in CMC1 (50 and 100 mg/kg body). (D and E) Body weight changes in CMC1 (50 and 100 mg/kg body) Computational Studies: […]

T47D cells = experiment: MTT cell proliferation assay, T47D cells; type: cell-based, human; settings: 72 h
Experimental: as §1, §2

MMTV-PyMT-Tg mice = experiment: Tumor growth in genetically engineered mouse (GEM) model of breast cancer; type: in vivo; settings: 10 mg/kg body, three times a week by oral gavage for 7 weeks
Experimental: The antitumor potential of one of the most potential CMC compound, CMC2, in genetically engineered mouse (GEM) model of breast cancer, MMTV-PyMT-Tg mice was tested. The MMTV-PyMT-Tg mouse was mainly chosen because the tumor formation and progression in this mouse is characterized by four different stages (hyperplasia, adenoma/mammary intra-epithelial neoplasia, early and late carcinoma) and also mimics human breast cancer, the tumor develops first as ER-positive (ER^+) but ultimately becomes ER-negative BC (ER^− BC).
It was randomly assigned 6-week-old MMTV-PyMT-Tg mice into two groups (3 mice in each); one control and one CMC2 treated (10 mg/kg body, three times a week by oral gavage for 7 weeks). Tumor volume was measured twice a week and the volume was calculated using the formula V=L×W^2/2, where L represents the largest tumor diameter and W represents the smallest tumor diameter. After the experimental period, tumor tissues were collected, a picture was taken, and tumor weight was measured. Tissue sections were prepared from the tumor tissue and stained for Hematoxylin and Eosin (H & E) section and also stained for the Ki67 for cell proliferation. Tissue sections and H & E sections were prepared from the Augusta University Histology core facility.
Six-week-old MMTV-PyMT-Tg mice were treated with CMC2 (10 mg/kg body for 3× a week for 7 weeks. Control mice received PBS. Tumor volume was measured twice a week and calculated (A). After the experimental period, tumor size (B) and tumor weight (C) were also analyzed. Tissue sections were prepared and stained with H & E and Ki67 (D). Values are shown as mean±SD of three mice in each.

SMILES	EC50 (MDA-MB231 (MB231) cells; Homo sapiens, MDA-MB-231, 72 h) [nM]	contraindication / side effects (FVB/N mice)	mouse growth (body weight) (FVB/N mice)	EC50 (MDA-MB231 (MB231) cells; 72 h) [nM]	EC50 (T47D cells) [nM]	tumor growth (tumor volume) (MMTV-PyMT-Tg mice)	tumor size (MMTV-PyMT-Tg mice)	tumor weight (MMTV-PyMT-Tg mice)
COc1cc(/C=C/C(=O)/C=C(O)/C=C/c2ccc(OC(=O)C(Cl)Cl)c(OC)c2)ccc1OC(=O)C(Cl)Cl [CMC 1]	424	no contraindication	normal	–	–	–	–	–
COc1cc(/C=C/C(=O)/C=C(O)/C=C/c2ccc(OC(=O)CNC(=O)C(Cl)Cl)c(OC)c2)ccc1OC(=O)CNC(=O)C(Cl)Cl [CMC 2]	–	no contraindication	normal	778	1420	significantly reduced	significantly reduced	significantly reduced
COc1cc(/C=C/C(=O)/C=C(O)/C=C/c2ccc(OC(=O)[C@H](C)NC(=O)C(Cl)Cl)c(OC)c2)ccc1OC(=O)[C@H](C)NC(=O)C(Cl)Cl [CMC 3]	–	–	–	518	1600	–	–	–
COc1cc(/C=C/C(=O)/C=C(O)/C=C/c2ccc(OC(=O)CCNC(=O)C(Cl)Cl)c(OC)c2)ccc1OC(=O)CCNC(=O)C(Cl)Cl [CMC 4]	–	–	–	1130	1260	–	–	–
COc1cc(/C=C/C(=O)/C=C(O)/C=C/c2ccc(OC(=O)[C@H](Cc3ccccc3)NC(=O)C(Cl)Cl)c(OC)c2)ccc1OC(=O)[C@H](Cc1ccccc1)NC(=O)C(Cl)Cl [CMC 5]	–	–	–	838	1240	–	–	–
COc1cc(/C=C/C(=O)/C=C(O)/C=C/c2ccc(OC(=O)CCCNC(=O)C(Cl)Cl)c(OC)c2)ccc1OC(=O)CCCNC(=O)C(Cl)Cl [CMC 6]	–	–	–	942	1370	–	–	–
